Experimental data reported in the METLIN SMRT retention time set (Domingo-Almenara et al. 2019).

Assay: gradient 5% acetonitrile 3 min, to 50% in 2 min, to 85% in 15 min, held 3 min, 100 µL/min
Conditions: column: Zorbax Extend-C18 2.1 x 50 mm; eluents: water / acetonitrile, 0.1% formic acid
Method in brief: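 Standards, all pure, were combined into mixtures of ~100 molecules and run at 100 μL/min on a Zorbax Extend-C18 column (2.1 × 50 mm, 1.8 μm) with water and acetonitrile, each containing 0.1% formic acid. A coupled quadrupole time-of-flight mass spectrometer operated in positive and negative ionization mode. Retention time values come from computationally picked adduct peaks, each inspected manually.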

SMILES	RP-LC retention time [s]
CC1(C)CCC[C@@](C)([C@H]2CC[C@]3(C)[C@@H]2[C@H](O)C[C@@H]2[C@@]4(C)CC[C@H](O)C(C)(C)[C@@H]4[C@@H](O)C[C@]23C)O1	1150
Cn1cc(CC(=O)NCC#CCN2CCc3ccccc3C2)c2ccccc21	578
CCN(CC)C(=O)C1CCC(=O)N(c2ccc(OC)cc2)C1c1ccc(OC)c(OC)c1 (stereo not drawn)	676
COc1ccc(-c2cc3c(=O)n(CC(=O)NCC4CCCO4)ncn3n2)cc1 (stereo not drawn)	720
Cc1ccc(S(=O)(=O)N2c3ccccc3NC3=C(C(=O)CCC3)C2c2ccco2)cc1 (stereo not drawn)	837
O=C(NCc1ccc(F)cc1)Nc1nnc(-c2ccco2)o1	706
COc1cccc(-c2noc(-c3nn(-c4ccc(Cl)cc4)ccc3=O)n2)c1OC	896
CN1CCCn2cc(S(=O)(=O)NCc3ccccc3Cl)cc2C1=O	704
Cc1ccc(CNC(=O)C2CC(=O)N(c3ccc4c(c3)CCN4C(=O)C3CC3)C2)cc1 (stereo not drawn)	756
CCCNc1cc(N2CCC(CCC(=O)NCc3ccccc3F)CC2)ncn1	680
CCCn1nc2ccc(S(=O)(=O)N3CCOCC3)cn2c1=O	696
O=c1n(CCc2ccccc2)nc2c(S(=O)(=O)N3CCN(c4ccc(F)cc4)CC3)cccn12	989
CC(C(=O)N1CC2CN(S(=O)(=O)c3cccc(F)c3)CC(C1)O2)c1ccccc1 (stereo not drawn)	878
O=C(CN1CCCC(COCc2ccccc2)C1)N1CCN(c2ccccc2)CC1 (stereo not drawn)	620
COc1ccc(CN2C[C@@H]3C(=O)N(CCCN4CCCC4=O)C(=O)[C@@H]3C2)c(OC)c1	598
CC(=O)N1CCN(S(=O)(=O)c2ccc3c(c2)OCCCO3)CC1	641
CCc1nc2c(c(=O)n1CC(=O)NCc1ccccc1)CN(Cc1ccccc1)CC2	629
COC(=O)c1ccc(NC(=O)C(=O)NCC2CCN(Cc3ccco3)CC2)cc1	573
CC(=O)Nc1ccc(OCc2cc(C(=O)NC3CCCCC3)no2)cc1	781
CSc1cccc(NC(=O)Nc2ccccc2C(N)=O)c1	856

SMILES	RP-LC retention time [s]
O=C(NCCN1CCOCC1)c1csc(N2CCN(c3ccccc3)CC2)n1	650
Cc1[nH]c(C(=O)N2CCCC(C(=O)NCc3ccc(OC(C)C)cc3)C2)c(C)c1C(=O)OC(C)C (stereo not drawn)	929
CC(C)CN1C(=O)c2cccn2CC1C(=O)NCC1CC1 (stereo not drawn)	731
COc1cc(=O)n(-c2ccccc2)nc1C(=O)NC(c1ccccc1)c1ccccc1	828
O=C(Cn1c(=O)c2cc(-c3ccco3)nn2c2ncccc21)NC1CCCC1	698
COc1ccc(CCc2nc3nccc(-c4cccc(OC)c4)n3n2)cc1	879
CC(=O)c1cccc(NC(=O)Cn2cccc2-c2nnc(C3CCC3)o2)c1	831
O=C(Nc1ccc(NC(=O)N2CCC(C(=O)NCC3CC3)CC2)cc1)NC1CCCC1	679
O=C(CCNc1c(-c2ccc(F)cc2)nc2cnccn12)NCc1ccc2c(c1)OCO2	716
CCc1ccc(CNC(=O)c2c(O)c3cccnc3[nH]c2=O)cc1	1040
O=C(COc1ccc(Cl)cc1)NCC(=O)N1CCCc2ccccc21	910
O=C(C1CCN(c2nnc(-c3ccccc3)o2)CC1)N1CCN(c2ccccn2)CC1	602
NC(=O)C1CCN(C(=O)c2cc(-c3ccccc3Cl)on2)CC1	674
Cc1cc2c(c(=O)n(-c3ccc(F)cc3)c(=O)n2CC(=O)Nc2ccccc2Cl)n1C	858
CN(C)CCNC(=O)c1ccc(-c2ccc(N3CCCCCC3)nc2)cc1	560
CC(C)CCNC(=O)NCCn1nnc2cc(C(=O)N3CCCC3)ccc21	657
O=C1CCCN1CCCN(CC(=O)N1CCNCC1)C(=O)c1ccc(F)c(Cl)c1	581
Cc1ccc(Nc2c(-c3ccc(N4CCOCC4)cc3)nc3cnccn23)cc1	848
Cc1ccc2c(c1)C(=O)NC1(CCN(C(=O)c3ccc4c(c3)OCO4)CC1)N2C	721
COc1ccccc1-c1nc2nccc(-c3cc(OC)c(OC)c(OC)c3)n2n1	824

SMILES	RP-LC retention time [s]
CCc1cc(=O)n(Cc2ncc(C)c(OC)c2C)c(N2CCOCC2)n1	620
CCC1CCCCN1c1cc(SCC(=O)Nc2ccc(N(C)C)cc2)ncn1 (stereo not drawn)	709
O=C(c1nc2ccccc2nc1Cl)N1CCN(c2ccccn2)CC1	597
Cc1ccc(NC(=O)Nc2cnn(-c3ncc(N4CCCC4)cn3)c2)c(Cl)c1	844
CCOC(=O)CCc1c(C)nn(-c2cc(N3CCOCC3)ncn2)c1C	863
CCc1nc2cc(N3CCC(C(=O)Nc4ccccc4OC)CC3)cnc2nc1CC	942
O=C(NCCCn1cccn1)c1cccc2[nH]cc(CN3CCSCC3)c12	628
Cc1cc(S(=O)(=O)N2CCC3(CC2)CCC(O)(CN2CCCC2)CC3)ccc1Cl	706
CC(C)c1noc(-c2ccn3c(CC(=O)N4CCCCC4)nnc3c2)n1	721
CNC(=O)N1CCc2c(c(-c3nc(-c4cccc(F)c4)no3)nn2C)C1	738
Cc1cc(NC(=O)Nc2ccc3nnc(C4CCC4)n3c2)ccc1Br	903
CCc1nccn1Cc1noc(-c2ccco2)n1	566
Cc1ccc(-n2nc(N3CCCC(C(=O)NCc4ccc(N(C)C)cc4)C3)ccc2=O)cc1Cl (stereo not drawn)	692
CS(=O)(=O)N1CCC(C(=O)Nc2ccc(Cl)c(C(F)(F)F)c2)Oc2ccccc21 (stereo not drawn)	1020
Cn1c(SCC(=O)Nc2ncn[nH]2)nc2ccsc2c1=O	583
Cc1ccc(-c2nccn3cc(C(=O)NCc4ccncc4)nc23)cc1	633
CCC(C)NC(=O)N1CC(Oc2ccc(-c3noc(COC)n3)cc2)C1 (stereo not drawn)	794
COc1cc([C@@H]2c3cc4c(cc3[C@@H](O)[C@H]3COC(=O)[C@H]23)OCO4)cc(OC)c1O	680
CCc1noc(C2(NC(=O)c3cccc(Cl)c3)CCCCC2)n1	1030
COC(=O)c1ncn2c1C(=O)N(Cc1ccccc1Cl)C(C)(C(=O)NC1CCCCC1)C2 (stereo not drawn)	804

More lines, now with the values ahead:

RP-LC retention time [s]	SMILES
696	COCCNc1c(-c2cccc(F)c2)nc2sc(C(N)=O)c(C)n12
980	CCOC(=O)c1c(S(=O)(=O)N2CCC(C(=O)Nc3cc(C)cc(C)c3)CC2)c(C)n(CC)c1C
717	COC(=O)c1cnc2nc(C)ccc2c1Nc1ccc(F)c(Cl)c1
770	COc1ccc(OC)c(CNC(=O)Cn2ccc3ccc(-c4nnc(C)o4)cc32)c1
592	Cc1noc(CNC(=O)c2cc(C)on2)n1
837	COc1ccccc1CNC(=O)Cc1csc(NC(=O)Nc2cccc(Cl)c2)n1
1020	Cc1ccc(-c2ccc(=O)n(Cc3nc(-c4ccc5c(c4)OCO5)no3)n2)cc1
1010	CCc1nc(-c2csc(S(=O)(=O)N3CCCC(C(=O)NCc4ccccc4C)C3)c2)no1 (stereo not drawn)
814	Cc1cc(C)c(S(=O)(=O)N2CCC[C@@H]2C(=O)NCCc2csc(C)n2)c(C)c1
916	CCOc1ccc(NS(=O)(=O)c2cc(C(=O)Nc3cccc(Cl)c3)n[nH]2)cc1
770	Cc1ccc2nc(N3CCNCC3)c(-c3noc(-c4ccccc4)n3)cc2c1
726	Cn1c(-c2cccc(C(=O)NCc3cc(F)ccc3F)c2)nc2cccnc21
628	COc1ccc(NC(=O)c2c(OC)cc(=O)n3c2CCCC3)cc1OC
689	Cc1cccc(NC(=O)N2CCC(c3nc(C(=O)N(C)C)c(C)o3)CC2)c1
1150	Cc1oc(-c2ccccc2)nc1CN(c1ccccc1)S(=O)(=O)c1cccs1
776	COc1cccc(NC(=O)CN2C(=O)c3ccccc3Sc3ncccc32)c1
896	CCOc1ccc(NC(=O)Cn2c(C)cc(-c3nnc(C4CCC4)o3)c2C)cc1
1080	Cc1cc(C)cc(NS(=O)(=O)c2cc(-c3nc(C)cs3)sc2C)c1
1100	CC(C)Oc1ccc(-c2noc(Cn3c(=O)n(-c4ccccc4)c(=O)c4sccc43)n2)cc1
984	COc1ccc(OCc2nnc3sc(-c4cc5ccccc5o4)nn23)cc1
941	COC(=O)C1=CN(c2ccc(C)c(C)c2)c2ccccc2S1(=O)=O
1110	Cc1ccc(-c2nnc(Cc3nc(-c4cccc(F)c4)no3)o2)cc1F
1050	C=CCn1c2ccccc2c2nnc(SCC(=O)Nc3nc(-c4ccccc4)cs3)nc21
1010	Cc1ccc(-c2nnc(Cc3nc(-c4cccs4)no3)o2)cc1F
1240	Cc1ccccc1-c1nc(-c2ccc(S(=O)(=O)N3CCCC3)cc2)no1
697	COc1ccc(NC(=O)CCc2c(C)nn(-c3cc(N(C)C)ncn3)c2C)cc1OC
864	CSc1ccc(-c2nc3ncccn3c2Nc2cc(C)ccc2C)cc1
930	Cc1ccc(-c2cn3c(CC(=O)NCC(C)c4ccccc4)csc3n2)cc1C (stereo not drawn)
